Key:
[1] = Inhibitory concentration against NADH-ubiquinone oxidoreductase
[2] = Inhibitory concentration against NADH ubiquinone oxidoreductase
[3] = molecular target: Hypoxia-inducible factor 1-alpha (Homo sapiens, UniProt Q16665); test: Effective concentration to inhibit production of hypoxia inducible factor 1-alpha protein
Chain of Hypoxia-inducible factor 1-alpha (Q16665 whole entry): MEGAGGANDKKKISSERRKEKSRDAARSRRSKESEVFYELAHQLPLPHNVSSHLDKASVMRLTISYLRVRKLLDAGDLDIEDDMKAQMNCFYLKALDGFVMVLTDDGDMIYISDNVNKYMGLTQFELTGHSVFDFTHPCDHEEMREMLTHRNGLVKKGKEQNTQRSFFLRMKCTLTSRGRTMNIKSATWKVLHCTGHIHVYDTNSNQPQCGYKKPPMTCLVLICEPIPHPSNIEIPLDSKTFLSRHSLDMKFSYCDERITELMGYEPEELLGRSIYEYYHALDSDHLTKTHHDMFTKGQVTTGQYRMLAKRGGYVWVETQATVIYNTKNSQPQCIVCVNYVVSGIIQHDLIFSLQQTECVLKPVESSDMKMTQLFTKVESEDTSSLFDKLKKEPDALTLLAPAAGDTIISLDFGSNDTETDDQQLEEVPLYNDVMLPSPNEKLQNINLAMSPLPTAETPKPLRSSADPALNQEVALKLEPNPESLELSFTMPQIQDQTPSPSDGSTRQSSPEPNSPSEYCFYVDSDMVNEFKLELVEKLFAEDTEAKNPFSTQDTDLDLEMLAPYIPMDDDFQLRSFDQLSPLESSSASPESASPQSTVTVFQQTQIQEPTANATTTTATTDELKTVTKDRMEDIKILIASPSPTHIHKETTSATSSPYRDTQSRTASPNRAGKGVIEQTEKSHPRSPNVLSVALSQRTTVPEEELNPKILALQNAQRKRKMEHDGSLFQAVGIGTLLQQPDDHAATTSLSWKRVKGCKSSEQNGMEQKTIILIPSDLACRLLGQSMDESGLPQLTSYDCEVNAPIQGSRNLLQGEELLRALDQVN

| IC50 [1] [nM] | IC50 [2] [nM] | EC50 [3] [nM] | Compound |
| --- | --- | --- | --- |
| 18 | 18 |  | C=C(Cc1cc(OC)c(OC)c(OC)c1)c1ccc2c(c1)CCC(C)(C)O2 [2,2-Dimethyl-6-[1-(3,4,5-trimethoxy-benzyl)-vinyl]-chroman] |
| 55 | 55 |  | COc1cc(COC(=O)c2ccc3c(c2)C=CC(C)(C)O3)cc(OC)c1OC [2,2-Dimethyl-2H-chromene-6-carboxylic acid 3,4,5-trimethoxy-benzyl ester] |
|  |  | 35000 | COc1c(C(C)n2cnc3ncccc32)ccc2c1C=CC(C)(C)O2 (stereo not given) [1-[1-(5-Methoxy-2,2-dimethyl-2H-chromen-6-yl)-ethyl]-1H-imidazo[4,5-b]pyridine] |

Source: BindingDB's records for doi:10.1021/jm050524f (The Scripps Research Institute, 2005)
